# Results as given in ChEMBL document CHEMBL1201862, “PubChem BioAssay data set” (2004).
# Values joined by “and” are separate entries in the source; they are usually repeats but may differ in a detail not shown here. Identical values can stand only once.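 Each compound was tested at five concentrations against cells in 96-well plates for 48 hours. GI50: concentration for 50% inhibition of growth.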 Active and inactive are the calls of the source. No stated cut-off is given here; in the data, active = GI50 up to about 1.1 µM and inactive = higher.
# How the values were obtained:
# Assay in all cases: DTP human tumour cell line panel, 48 h
# MDA-MB-435 = test system: MDA-MB-435
# BT-549 = test system: BT-549
# HL-60 = test system: HL-60
# SK-OV-3 = test system: SK-OV-3
# MOLT-4 = test system: MOLT-4
# A549 = test system: A549
# SF-268 = test system: SF-268
# SNB-75 = test system: SNB-75
# RXF 393 = test system: RXF 393
# NCI-H522 = test system: NCI-H522
# SK-MEL-5 = test system: SK-MEL-5
# U-251 = test system: U-251
# LOX IMVI = test system: LOX IMVI
# MDA-MB-231 = test system: MDA-MB-231
# Hs-578T = test system: Hs-578T
# SR = test system: SR
# PC-3 = test system: PC-3
# HOP-62 = test system: HOP-62
# NCI-H460 = test system: NCI-H460
# NCI-H226 = test system: NCI-H226
SMILES,GI50 (MDA-MB-435),GI50 (BT-549),GI50 (HL-60),GI50 (SK-OV-3),GI50 (MOLT-4),GI50 (A549),GI50 (SF-268),GI50 (SNB-75),GI50 (RXF 393),GI50 (NCI-H522),GI50 (SK-MEL-5),GI50 (U-251),GI50 (LOX IMVI),GI50 (MDA-MB-231),GI50 (Hs-578T),GI50 (SR),GI50 (PC-3),GI50 (HOP-62),GI50 (NCI-H460),GI50 (NCI-H226)
NNC(=O)CC(=O)Nc1ccccc1Cl,> 100 µM (inactive),> 100 µM (inactive),> 100 µM (inactive),> 100 µM (inactive),> 100 µM (inactive),> 100 µM (inactive),> 100 µM (inactive),> 100 µM (inactive),> 100 µM (inactive),> 100 µM (inactive),> 100 µM (inactive),> 100 µM (inactive),> 100 µM (inactive),> 100 µM (inactive),> 100 µM (inactive),> 100 µM (inactive),> 100 µM (inactive),> 100 µM (inactive),> 100 µM (inactive),–
COC(=O)C(CCCCN)NC(=O)C(CCCCN)NC(=O)C(CCCCN)NC(C)=O.Cc1ccc(C(=O)Nc2ccc(S(=O)(=O)O)c3cc(S(=O)(=O)O)cc(S(=O)(=O)O)c23)cc1NC(=O)c1cccc(NC(=O)Nc2cccc(C(=O)Nc3cc(C(=O)Nc4ccc(S(=O)(=O)O)c5cc(S(=O)(=O)O)cc(S(=O)(=O)O)c45)ccc3C)c2)c1,> 50 µM (inactive),> 50 µM (inactive),> 50 µM (inactive),> 50 µM (inactive),> 50 µM (inactive),> 50 µM (inactive),43 µM (inactive),10.7 µM (inactive),> 50 µM (inactive),–,> 50 µM (inactive),> 50 µM (inactive),> 50 µM (inactive),> 50 µM (inactive),> 50 µM (inactive),> 50 µM (inactive),> 50 µM (inactive),–,48.9 µM (inactive),17.7 µM (inactive)
Cc1ccc(S(=O)(=O)N/N=C2\CCCCCCCCCCC2CN(C)C)cc1 (centres undefined),14.7 µM (inactive),17.7 µM (inactive),19.4 µM (inactive),20 µM (inactive),26.7 µM (inactive),19.3 µM (inactive),21.3 µM (inactive),–,11.6 µM (inactive),14.3 µM (inactive),11.2 µM (inactive),15.9 µM (inactive),17.1 µM (inactive),18.9 µM (inactive),15 µM (inactive),16.9 µM (inactive),15.3 µM (inactive),17.6 µM (inactive),12.4 µM (inactive),15.7 µM (inactive)
CCOC(=O)CC[C@H](NC(=O)c1ccc(CNc2nc3cc(C(F)(F)F)ccc3nc2C(=O)OCC)cc1)C(=O)OCC,> 73.6 µM (inactive),18.1 µM (inactive),> 100 µM (inactive),31.4 µM (inactive),> 100 µM (inactive),34.7 µM (inactive),12.4 µM (inactive),12.8 µM (inactive),27.7 µM (inactive),15.7 µM (inactive),27.9 µM (inactive),5.87 µM (inactive),> 100 µM (inactive),13.3 µM (inactive),7.16 µM (inactive),> 100 µM (inactive),30.3 µM (inactive),9.25 µM (inactive),15.5 µM (inactive),–
CCOC(=O)c1c(-c2ccc(OC)cc2)c(C#N)c(=S)n(C2OC(COC(C)=O)C(OC(C)=O)C(OC(C)=O)C2OC(C)=O)c1-c1ccccc1 (centres undefined),> 100 µM (inactive),> 100 µM (inactive),> 100 µM (inactive),> 100 µM (inactive),> 100 µM (inactive),> 100 µM (inactive),> 100 µM (inactive),60 µM (inactive),> 100 µM (inactive),–,40.6 µM (inactive),> 100 µM (inactive),> 100 µM (inactive),> 100 µM (inactive),29.9 µM (inactive),> 100 µM (inactive),> 100 µM (inactive),> 100 µM (inactive),> 100 µM (inactive),–
O=C(NCc1cccc(C(F)(F)F)c1)c1cc2sccc2nc1C(F)(F)F,> 100 µM (inactive),> 100 µM (inactive),–,81.5 µM (inactive),82.2 µM (inactive),> 100 µM (inactive),64 µM (inactive),–,27.7 µM (inactive),62.7 µM (inactive),93.1 µM (inactive),27.4 µM (inactive),–,51.4 µM (inactive),26.9 µM (inactive),> 100 µM (inactive),> 100 µM (inactive),33.8 µM (inactive),–,98.9 µM (inactive)
Cc1c(CCN2CCOCC2)c(N2CCOCC2)n2c(nc3ccccc32)c1C#N,> 10 µM (inactive),> 10 µM (inactive),> 10 µM (inactive),> 10 µM (inactive),> 10 µM (inactive),> 10 µM (inactive),> 10 µM (inactive),> 10 µM (inactive),> 10 µM (inactive),–,> 10 µM (inactive),> 10 µM (inactive),> 10 µM (inactive),> 10 µM (inactive),3.77 µM (inactive),> 10 µM (inactive),> 10 µM (inactive),> 10 µM (inactive),> 10 µM (inactive),> 10 µM (inactive)
Cc1[nH]c2ncn(Nc3ccccc3)c(=N)c2c1Cc1ccccc1,0.491 µM (active),3.34 µM (inactive),1.73 µM (inactive),> 100 µM (inactive),35.6 µM (inactive),1.48 µM (inactive),> 100 µM (inactive),71.3 µM (inactive),30.6 µM (inactive),–,0.386 µM (active),19.7 µM (inactive),10.7 µM (inactive),61.7 µM (inactive),8.28 µM (inactive),21.2 µM (inactive),23.4 µM (inactive),32.4 µM (inactive),14.3 µM (inactive),> 55 µM (inactive)
COc1ccc(-c2[nH]c(=O)n(C3OC(CO)C(O)C(O)C3O)c(=O)c2C#N)cc1 (centres undefined),> 100 µM (inactive),> 100 µM (inactive),–,> 100 µM (inactive),> 100 µM (inactive),> 100 µM (inactive),> 100 µM (inactive),> 100 µM (inactive),> 100 µM (inactive),> 100 µM (inactive),> 100 µM (inactive),> 100 µM (inactive),–,> 100 µM (inactive) and 81.5 µM (inactive),> 100 µM (inactive),> 100 µM (inactive),> 100 µM (inactive),> 100 µM (inactive),> 100 µM (inactive),> 100 µM (inactive)
OC(C1CO1)C(O)C1CO1 (centres undefined),101 µM (inactive),120 µM (inactive),3.21 µM (inactive),43.1 µM (inactive),3.68 µM (inactive),–,–,7.96 µM (inactive),56.1 µM (inactive),46.9 µM (inactive),29.1 µM (inactive),27 µM (inactive),15.7 µM (inactive),132 µM (inactive),80.9 µM (inactive),1.75 µM (inactive),39.8 µM (inactive),7.26 µM (inactive),3.33 µM (inactive),–
COC(=O)C1=C(O)C(C(=O)OC)[C@]2(O)[C@H](C(=O)OC)[C@H]1C[C@@H](c1ccc(OC)c(OC)c1)[C@H]2C(=O)OC (some centres undefined),11.3 µM (inactive),16.4 µM (inactive),7.83 µM (inactive),17.6 µM (inactive),17.5 µM (inactive),11.6 µM (inactive),–,7.8 µM (inactive),14.3 µM (inactive),–,13.3 µM (inactive),11.2 µM (inactive),13.4 µM (inactive),34.2 µM (inactive),29.9 µM (inactive),14 µM (inactive),25.4 µM (inactive),16.7 µM (inactive),14.7 µM (inactive),4.79 µM (inactive)
COC(=O)[C@@H](Cc1ccccc1)NNC(=O)OC(C)(C)C,> 100 µM (inactive),> 100 µM (inactive),> 100 µM (inactive),> 100 µM (inactive),> 100 µM (inactive),> 100 µM (inactive),> 100 µM (inactive),–,> 100 µM (inactive),> 100 µM (inactive),> 100 µM (inactive),> 100 µM (inactive),> 100 µM (inactive),> 100 µM (inactive),> 100 µM (inactive),> 100 µM (inactive),> 100 µM (inactive),> 100 µM (inactive),> 100 µM (inactive),–
C(=N\NC1=NCCN1)/c1ccc(-c2cn3cc(/C=N/NC4=NCCN4)ccc3n2)cc1,24.5 µM (inactive),18.2 µM (inactive),4.48 µM (inactive),> 100 µM (inactive),5.35 µM (inactive),10.2 µM (inactive),9.79 µM (inactive),> 100 µM (inactive),> 55.6 µM (inactive),10.9 µM (inactive),> 100 µM (inactive),15.5 µM (inactive),7.74 µM (inactive),14.6 µM (inactive),> 87.3 µM (inactive),3.33 µM (inactive),22.9 µM (inactive),–,3.76 µM (inactive),–
C=CCc1cc(C=C(C#N)C#N)cc(OC)c1O,59 µM (inactive),90.4 µM (inactive),28.2 µM (inactive),> 100 µM (inactive),40 µM (inactive),> 100 µM (inactive),–,55.5 µM (inactive),24.8 µM (inactive),90.6 µM (inactive),27.7 µM (inactive),76.2 µM (inactive),50.2 µM (inactive),> 100 µM (inactive),> 100 µM (inactive),42.7 µM (inactive),35.8 µM (inactive),–,> 100 µM (inactive),> 100 µM (inactive)
